This assay deals with T1, full-length human PKCα enzyme (Homo sapiens, UniProt P17252).
T1 construct: full-length human PKCα enzyme; purchased Upstate Biotechnology
As to the kind of experiment: Assessment of PKC-α Inhibitory Activity (MALDI-TOF kinase assay). Conditions: full-length human PKCα 0.12 μg/ml; ATP 45 μM; neurogranin 28-43 peptide 22 μM; 30 minute incubation at 24° C.; MALDI-TOF MS readout. The format is biochemical. As for the experimental part: Measurement of PKCα enzyme activity is performed using full-length human PKCα enzyme (Upstate Biotechnology) at a final concentration of 0.12 μg/ml in a kinase assay buffer (0.09 mg/ml bovine serum albumin (BSA), 210 μM ethylenediaminetetraacetic acid (EDTA), 360 μM CaCl2, 1 mM Tris-HCl, pH=7.5, 0.5 mM MgCl2, 0.015 mg/ml phosphatidylserine and 0.015 mg/ml diacylglycerol). The reaction is initiated by addition of adenosine triphosphate (ATP; final concentration 45 μM) and a peptide substrate consisting of amino acids 28-43 (Ala-Ala-Lys-Ile-Gln-Ala-Ser-Phe-Arg-Gly-His-Met-Ala-Arg-Lys-Lys) of neurogranin (Promega; final concentration 22 μM). After a 30 minute incubation at 24° C. the reaction is terminated by adding 5 μL of the reaction mixture into 50 μL of MALDI matrix solution (5 mg/ml α-cyano-4-hydroxycinnamic acid in 50% Acetonitrile/H2O, 0.1% TFA, 5 mM ammonium phosphate). Two microliters of the stopped reaction mixture is transferred onto a MALDI-TOF mass spectrometer target plate.
All spectra are collected on an Applied Biosystems 4700 Proteomics Analyzer MALDI-TOF MS equipped with a Nd:YAG laser (355 nm, 3 ns pulse width, 200 Hz repetition rate) in negative ion reflector mode. The system is operated with 4700 Explorer software, version 3.0. Automated acquisition parameters are adjusted to capture and average only those individual spectra within defined success criteria. Specifically, signal intensities for the substrate peptide are set to a minimum threshold of 3000 counts and a maximum intensity of 65,000 counts. This ensured that neither null spectra nor saturated spectra are averaged into the final readout. Between 1000 and 1500 laser shots are averaged for each sample. Data are collected in triplicate from 3 successive days to capture the maximum variability related to preparation of enzyme reaction, transfer of samples to MALDI target plates, data collection, and data extraction.
The isotope cluster areas for each peptide substrate and product peaks are extracted into a Microsoft Excel worksheet from the 10×10 array of spectral data simultaneously using the automated analysis function provided within the 4700 Explore software. The isotope cluster area is defined by the software algorithm based on the molecular weight and the general elemental composition of the peptides. The percent conversion (% C) of substrate to product is calculated as the cluster area of the product (P) divided by the sum of the cluster areas of the substrate (S) and the product multiplied by 100 as represented by the following equation: […]
For dose-dependent inhibition studies, the inhibition is plotted as a % Maximal Activity (% MA). Equation one is a measure of the ratio of product to substrate then solving for the % C. However, to measure inhibition of the enzyme activity, one must measure the degree to which that activity (% C) is curtailed. Thus the dose-dependant inhibition data is plotted as % MA where the maximal activity is the % C measured in control reactions with no inhibitor as represented by the following equation: […]

pIC50: −log10 of the molar value.

One may read the pIC50 as the negative decadic logarithm of the IC50, by convention in mol/L. A high value points to a small IC50. In turn, `CN1CCC(CNc2ccnc(Nc3cccc(Cl)c3)n2)CC1` [N^2-(3-Chlorophenyl)-N^4-(1-methylpiperidin-4-yl-methyl)-pyrimidine-2,4-diamine] had a negative-log IC50 (pIC50) of 7.52.
For `Clc1cccc(Nc2nccc(NCC3CNCCO3)n2)c1` (stereo not shown) [N^2-(3-Chlorophenyl)-N^4-morpholin-2-ylmethyl-pyrimidine-2,4-diamine], the pIC50 was 7.64.
Under `c1cc(Cc2cc3ccccc3[nH]2)cc(Nc2nccc(NCCCN3CCOCC3)n2)c1` [N^2-[3-(1H-Indol-2-ylmethyl)-phenyl]-N^4-(3-morpholin-4-yl-propyl)-pyrimidine-2,4-diamine] stands 7.74.
In turn, `O=[N+]([O-])c1cccc(Nc2nccc(NCCCN3CCCC3)n2)c1` [N^2-(3-Nitrophenyl)-N^4-(3-pyrrolidin-1-yl-propyl)-pyrimidine-2,4-diamine] gave a pIC50 of 8.70. Compared with the last compound, the pIC50 is 0.96 log units higher.
`COc1cccc(Nc2nccc(NCCCN3CCCC3)n2)c1` [N^2-[3-Methoxyphenyl]-N^4-(3-pyrrolidin-1-yl-propyl)-pyrimidine-2,4-diamine] had a pIC50 of 7.80.
Compound `NS(=O)(=O)c1cccc(Nc2nccc(NCCCN3CCOCC3)n2)c1` [3-[4-(3-Morpholin-4-yl-propylamino)-pyrimidin-2-ylamino]-benzenesulfonamide] showed a negative logarithm of the IC50 (pIC50) of 7.85.
Under `Clc1cccc(Nc2nccc(NCCCN3CCCC3)n2)c1` [N^2-(3-Chlorophenyl)-N^4-(3-pyrrolidin-1-yl-propyl)-pyrimidine-2,4-diamine] stands 8.52; under `CC(C)NC(=O)c1cccc(Nc2nccc(NCCCN3CCCC3)n2)c1` [N-Isopropyl-3-[4-(3-pyrrolidin-1-yl-propylamino)-pyrimidin-2-ylamino]-benzamide], 6.46.
In turn, `O=C1CCCN1CCCNc1ccnc(Nc2cccc(Cl)c2)n1` [1-{3-[2-(3-Chlorophenylamino)-pyrimidin-4-ylamino]-propyl}-pyrrolidin-2-one] had a negative logarithm of the IC50 (pIC50) of 6.15. Compared with the last compound, the pIC50 is 0.31 log units lower.
As for `CN1CCCC1CCNc1ccnc(Nc2cccc(Cl)c2)n1` (stereo not shown) [N^2-(3-Chlorophenyl)-N^4-[2-(1-methylpyrrolidin-2-yl)-ethyl]-pyrimidine-2,4-diamine], the negative-log IC50 (pIC50) was 9.40. This pIC50 lies 3.25 log units higher than the previous one.
Compound `CN1CCN(S(=O)(=O)c2cccc(Nc3nccc(NCCCN4CCOCC4)n3)c2)CC1` [N^2-[3-(4-Methyl-piperazine-1-sulfonyl)phenyl]-N^4-(3-morpholin-4-ylpropyl)-pyrimidine-2,4-diamine] showed a negative-log IC50 (pIC50) of 7.08.
In turn, `c1ccc(Oc2cccc(Nc3nccc(NCCCN4CCOCC4)n3)c2)cc1` [N^2-(3-Phenoxyphenyl)-N^4-(3-morpholin-4-yl-propyl)-pyrimidine-2,4-diamine] showed a negative-log IC50 (pIC50) of 7.30.
Regarding `Fc1cccc(Nc2nccc(NCCCN3CCOCC3)n2)c1` [N^2-(3-Fluorophenyl)-N^4-(3-morpholin-4-yl-propyl)-pyrimidine-2,4-diamine], the pIC50 was 7.19.
For `OCc1cccc(Nc2nccc(NCCCN3CCOCC3)n2)c1` [{3-[4-(3-Morpholin-4-yl-propylamino)-pyrimidin-2-ylamino]-phenyl}-methanol], the negative-log IC50 (pIC50) was 6.33.
`c1cncc(-c2cccc(Nc3nccc(NCCCN4CCOCC4)n3)c2)c1` [N^2-[3-(Pyridin-3-yl)-phenyl]-N^4-(3-morpholin-4-yl-propyl)-pyrimidine-2,4-diamine] showed a pIC50 of 7.55.
Take `CN1CCN(CCCNc2ccnc(Nc3cccc(Cl)c3)n2)CC1` [N^2-(3-Chlorophenyl)-N^4-[3-(4-methylpiperazin-1-yl)-propyl]-pyrimidine-2,4-diamine]: the pIC50 was 8.30.
The compound `O=[N+]([O-])c1cccc(Nc2nccc(NCCCN3CCOCC3)n2)c1` [N^2-(3-Nitrophenyl)-N^4-(3-morpholin-4-yl-propyl)-pyrimidine-2,4-diamine] showed a pIC50 of 9.00.
Take `O=S(=O)(NCc1cccnc1)c1cccc(Nc2nccc(NCCCN3CCOCC3)n2)c1` [3-[4-(3-Morpholin-4-yl-propylamino)-pyrimidin-2-ylamino]-N-(pyridin-3-ylmethyl)-benzenesulfonamide]: the pIC50 was 7.28.
The compound `FC(F)(F)c1cccc(Nc2nccc(NCCCN3CCCC3)n2)c1` [N^2-[3-Trifluoromethyl-phenyl]-N^4-(3-pyrrolidin-1-yl-propyl)-pyrimidine-2,4-diamine] gave a negative logarithm of the IC50 (pIC50) of 9.30.
In turn, `c1cc(Nc2nccc(NCCCN3CCOCC3)n2)cc(-c2nc3ccccc3s2)c1` [N^2-[3-(Benzo[d]thiazol-2-yl)-phenyl]-N^4-(3-morpholin-4-yl-propyl)-pyrimidine-2,4-diamine] had a negative logarithm of the IC50 (pIC50) of 7.40.
As to `O=C(Nc1cccc(Cl)c1)c1cccc(Nc2nccc(NCCCN3CCCC3)n2)c1` [N-(3-Chlorophenyl)-3-[4-(3-pyrrolidin-1-yl-propylamino)-pyrimidin-2-ylamino]-benzamide], the negative-log IC50 (pIC50) was 7.92.
In turn, “N^2-(3-Nitro-biphenyl-3-yl)-N^4-(3-morpholin-4-yl-propyl)-pyrimidine-2,4-diamine” showed a pIC50 of 6.74.
For `CN1CC[C@@H](CNc2ccnc(Nc3cccc(Cl)c3)n2)C1` [N^2-(3-Chlorophenyl)-N^4-{[(3S)-1-methylpyrrolidin-3-yl]methyl}pyrimidine-2,4-diamine], the negative logarithm of the IC50 (pIC50) was 7.89.
As to `c1ccc(-c2cccc(Nc3nccc(NCCCN4CCOCC4)n3)c2)cc1` [N^2-Biphenyl-3-yl-N^4-(3-morpholin-4-yl-propyl)-pyrimidine-2,4-diamine], the pIC50 was 8.52.
With `O=S(=O)(Nc1ccccc1)c1cccc(Nc2nccc(NCCCN3CCOCC3)n2)c1`, the negative-log IC50 (pIC50) is 7.64.
With `Brc1cccc(Nc2nccc(NCCCN3CCOCC3)n2)c1` [N^2-(3-Bromophenyl)-N^4-(3-morpholin-4-yl-propyl)-pyrimidine-2,4-diamine], the pIC50 is 9.00.
Take `Clc1cc(Nc2nccc(NCCCN3CCCC3)n2)ccc1OCc1ccccc1` [N^2-(4-(Benzyloxy)-3-chlorophenyl)-N^4-(3-pyrrolidin-1-yl-propyl)-pyrimidine-2,4-diamine]: the pIC50 is 7.40.
As to `CN1CC[C@H](CNc2ccnc(Nc3cccc(Cl)c3)n2)C1` [N^2-(3-Chlorophenyl)-N^4—[(3R)-1-methylpyrrolidin-3-ylmethyl]-pyrimidine-2,4-diamine], the pIC50 is 8.15.
As for `CN(C)c1cccc(Nc2nccc(NCCCN3CCOCC3)n2)c1` [N^2-[3-(N,N-dimethylamino)-phenyl]-N^4-(3-morpholin-4-yl-propyl)-pyrimidine-2,4-diamine], the pIC50 was 7.28.
Turning to `Cc1cccc(Nc2nccc(NCCCN3CCCC3)n2)c1` [N^2-(3-Methylphenyl)-N^4-(3-pyrrolidin-1-yl-propyl)-pyrimidine-2,4-diamine], the pIC50 is 7.40.
As to `CN1CCCC(CNc2ccnc(Nc3cccc(Cl)c3)n2)C1` (stereo not shown) [N^2-(3-Chlorophenyl)-N^4-(1-methylpiperidin-3-ylmethyl)-pyrimidine-2,4-diamine], the negative logarithm of the IC50 (pIC50) is 8.40.
`FC(F)(F)c1cc(Nc2nccc(NCCCN3CCOCC3)n2)cc(C(F)(F)F)c1` [N^2-(3,5-Bis-trifluoromethyl-phenyl)-N^4-(3-morpholin-4-yl-propyl)-pyrimidine-2,4-diamine] gave a pIC50 of 7.68.
Compound `Clc1cccc(Nc2nccc(NCC3CCCNC3)n2)c1` (stereo not shown) [N^2-(3-Chlorophenyl)-N^4-piperidin-3-ylmethyl-pyrimidine-2,4-diamine] had a negative-log IC50 (pIC50) of 7.60.
In turn, `Clc1cccc(Nc2nccc(NCCCN3CCOCC3)n2)c1` [N^2-(3-Chlorophenyl)-N^4-(3-morpholin-4-yl-propyl)-pyrimidine-2,4-diamine] gave a negative logarithm of the IC50 (pIC50) of 8.70.
Consider `CC(C)c1cccc(Nc2nccc(NCCCN3CCOCC3)n2)c1` [N^2-(3-Isopropylphenyl)-N^4-(3-morpholin-4-yl-propyl)-pyrimidine-2,4-diamine], for which the pIC50 is 7.10.
`O=C(Nc1cccc(Nc2nccc(NCCCN3CCOCC3)n2)c1)c1ccccc1` [N-{3-[4-(3-Morpholin-4-yl-propylamino)-pyrimidin-2-ylamino]-phenyl}-benzamide] showed a pIC50 of 7.60.
With `CN1C2CCC1CC(Nc1ccnc(Nc3cccc(Cl)c3)n1)C2` (stereo not shown) [N^2-(3-Chlorophenyl)-N^4-(8-methyl-8-azabicyclo[3.2.1]oct-3-yl)-pyrimidine-2,4-diamine], the pIC50 is 8.40.

For the origin of these results see patent US8354407B2 (Boehringer Ingelheim International GmbH, priority 2006, dated 2013).
